Measured values published in ChEMBL document CHEMBL2203010, “The discovery of tropane-derived CCR5 receptor antagonists” (Chem Biol Drug Des, 2006).

Assays:
[1] = molecular target: T1, Voltage-gated inwardly rectifying potassium channel KCNH2 (Homo sapiens, UniProt Q12809); assay: Inhibition of human ERG
[2] = molecular target: C-C chemokine receptor type 5 (Homo sapiens, UniProt P51681); assay: Displacement of [125I]MIP-1beta from CCR5 receptor
[3] = test system: Human immunodeficiency virus 1; assay: Antiviral activity against HIV1 BaL infected in peripheral blood lymphocytes assessed as inhibition of viral replication; format: functional; settings: Human immunodeficiency virus 1, BaL
[4] = test system: Human immunodeficiency virus 1; assay: Antiviral activity against CCR5-tropic HIV1 clade B infected in peripheral blood lymphocytes assessed as inhibition of viral replication; format: functional, organism-based; settings: Human immunodeficiency virus 1, clade B
[5] = test system: Human immunodeficiency virus 1; assay: Antiviral activity against CCR5-tropic HIV1 clade A infected in peripheral blood lymphocytes assessed as inhibition of viral replication; format: functional, organism-based; settings: Human immunodeficiency virus 1, clade A
[6] = Dissociation constant, pKa of the compound; format: physicochemical
hERG (KCNH2) = hERG (KCNH2) (Homo sapiens, UniProt Q12809); assay: Inhibition of human ERG at 1 uM
[7] = molecular target: T1, Voltage-gated inwardly rectifying potassium channel KCNH2; assay: Displacement of [3H]dofetilide from human ERG

T1 sequence (Q12809 whole entry): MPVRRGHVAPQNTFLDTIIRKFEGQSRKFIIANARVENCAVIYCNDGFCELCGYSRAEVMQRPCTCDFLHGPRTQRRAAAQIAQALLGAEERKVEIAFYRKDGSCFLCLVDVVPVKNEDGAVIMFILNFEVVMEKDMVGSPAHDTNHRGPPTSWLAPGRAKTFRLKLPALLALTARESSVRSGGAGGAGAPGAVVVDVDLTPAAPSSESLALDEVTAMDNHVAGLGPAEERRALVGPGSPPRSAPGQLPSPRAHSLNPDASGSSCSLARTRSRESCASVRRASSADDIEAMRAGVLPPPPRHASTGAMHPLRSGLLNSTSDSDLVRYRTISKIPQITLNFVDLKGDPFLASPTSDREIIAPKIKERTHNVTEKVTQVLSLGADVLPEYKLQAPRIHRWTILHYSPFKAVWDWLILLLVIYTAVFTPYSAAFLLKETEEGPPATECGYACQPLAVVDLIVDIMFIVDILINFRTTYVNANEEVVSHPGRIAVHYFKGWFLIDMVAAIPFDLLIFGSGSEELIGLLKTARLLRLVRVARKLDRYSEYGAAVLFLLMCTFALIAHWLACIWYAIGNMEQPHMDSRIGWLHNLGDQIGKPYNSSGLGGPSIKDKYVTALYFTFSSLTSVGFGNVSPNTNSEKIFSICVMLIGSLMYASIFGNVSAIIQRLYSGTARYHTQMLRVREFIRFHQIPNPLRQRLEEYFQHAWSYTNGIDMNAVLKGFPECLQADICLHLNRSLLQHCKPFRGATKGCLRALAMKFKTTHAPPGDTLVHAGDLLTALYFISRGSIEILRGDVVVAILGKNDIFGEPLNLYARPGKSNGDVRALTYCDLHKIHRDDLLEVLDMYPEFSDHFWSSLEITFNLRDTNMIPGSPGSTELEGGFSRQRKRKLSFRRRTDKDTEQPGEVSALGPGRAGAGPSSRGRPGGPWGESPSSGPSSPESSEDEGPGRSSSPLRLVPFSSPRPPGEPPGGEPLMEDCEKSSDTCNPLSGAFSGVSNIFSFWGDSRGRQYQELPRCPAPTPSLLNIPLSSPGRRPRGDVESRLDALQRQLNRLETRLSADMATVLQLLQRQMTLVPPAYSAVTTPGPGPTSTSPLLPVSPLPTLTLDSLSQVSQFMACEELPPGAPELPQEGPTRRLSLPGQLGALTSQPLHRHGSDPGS
Chain of C-C chemokine receptor type 5 (P51681 whole entry): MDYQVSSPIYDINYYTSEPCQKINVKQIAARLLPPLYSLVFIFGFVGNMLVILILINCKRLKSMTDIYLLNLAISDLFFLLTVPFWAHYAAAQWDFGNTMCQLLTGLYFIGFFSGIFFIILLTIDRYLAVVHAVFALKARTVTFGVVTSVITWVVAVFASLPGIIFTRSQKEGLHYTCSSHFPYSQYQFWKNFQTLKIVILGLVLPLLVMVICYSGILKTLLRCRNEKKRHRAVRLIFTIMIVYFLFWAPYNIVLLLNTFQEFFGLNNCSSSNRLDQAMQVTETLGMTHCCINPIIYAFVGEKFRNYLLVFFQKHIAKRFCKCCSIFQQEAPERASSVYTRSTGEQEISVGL
Chain of hERG (KCNH2) (Q12809 whole entry): as the sequence (Q12809 whole entry) above

Compound	IC50 [2]	IC90 [3]	inhibition (INH) [1]	IC50 [4]	IC50 [5]	pKa [6]	inhibition at 1 µM (hERG (KCNH2))	Ki [7]
Cc1nc2ccccc2n1[C@@H]1C[C@H]2CC[C@@H](C1)N2CC[C@H](NC(=O)C1CCC1)c1ccccc1	–	13 nM	Active	–	–	–	–	–
Cc1nc2ccccc2n1[C@H]1C[C@H]2CC[C@@H](C1)N2CC[C@H](NC(=O)C1CCC1)c1ccccc1	–	3 nM	Active	0.9 nM	0.9 nM	7.8	99%	–
Cc1nc2ccccc2n1[C@H]1C[C@H]2COC[C@@H](C1)N2CC[C@H](NC(=O)C1CCC1)c1ccccc1	39.7 nM	–	Active	–	–	–	–	–
Cc1nc2ccccc2n1[C@@H]1C[C@H]2COC[C@@H](C1)N2CC[C@H](NC(=O)C1CCC1)c1ccccc1	9 nM	–	Active	–	–	6	–	42 nM
Cc1nc2ccccc2n1[C@@H]1C[C@H]2CSC[C@@H](C1)N2CC[C@H](NC(=O)C1CCC1)c1ccccc1	21.5 nM	–	Active	–	–	–	–	–

Further lines, with some results ahead:

IC50 [2]	IC90 [3]	Compound	inhibition (INH) [1]	IC50 [4]	IC50 [5]	pKa [6]	inhibition at 1 µM (hERG (KCNH2))	Ki [7]
> 1000 nM	–	Cc1nc2ccccc2n1C1CN(CC[C@H](NC(=O)C2CCC2)c2ccccc2)C1	Active	–	–	–	–	–
1.2 nM	140 nM	Cc1nc2ccccc2n1C1(C)CCN(CC[C@H](NC(=O)C2CCC2)c2ccccc2)CC1	Active	–	–	–	–	–
8 nM	53 nM	Cc1nc2ccccc2n1[C@@H]1C[C@@H](C)N(CC[C@H](NC(=O)C2CCC2)c2ccccc2)[C@@H](C)C1	Active	–	–	–	–	–
17 nM	> 1000 nM	Cc1nc2ccccc2n1C1[C@H]2CN(CC[C@H](NC(=O)C3CCC3)c3ccccc3)C[C@@H]12 (some centres undefined)	Active	–	–	–	–	–
20 nM	73 nM	Cc1nc2ccccc2n1C1CCN(CC[C@H](NC(=O)C2CCC2)c2ccccc2)CC1	–	–	–	–	–	–
